Patent publication US20220155314A1, “TROPHOBLAST STEM CELL, METHODS OF PREPARATION AND USES THEREOF” (Academia Sinica, priority 2020, published 2022)

Experiments:
Type in all cases: cell-based, human
BeWo cells = assay: Expression of trophoblast stemness and differentiation genes in BeWo cells treated with EGF and chemical inhibitors
Method: FIGS. 6A to 6I show the regulation of trophoblast stemness and differentiation by antagonism between ΔNp63α and GCM1. […] ITGA6-positive term CTBs were cultured in complete TS medium for 5 days and then maintained in the same medium or incomplete medium (vehicle alone without EGF and chemical inhibitors) for an additional 7 days. Cells were subjected to immunofluorescence microscopy of ΔNp63α, GCM1, and hCGβ. […] BeWo cells were incubated in complete or incomplete TS medium supplemented with the indicated growth factor or chemical inhibitor(s) for 24 h. Cells were harvested for quantitative RT-PCR analysis of the indicated stemness or differentiation genes. […] BeWo cells were treated with the indicated concentration of VPA for 24 hours and then harvested for immunoblotting and quantitative RT-PCR analyses of GCM1, ΔNp63α, and hCGβ. […] BeWo cells were transfected with 4XCSL-luciferase in the presence or absence of 2 mM VPA for 48 hours, followed by luciferase assays. […] 293T cells were transfected with pHA-GCM1 and pNotch1IC-FLAG for 48 hours, followed by coimmunoprecipitation analysis and confocal microscopy using FLAG and HA mAbs and GCM1 Ab. […] EGFP-positive mock or Notch1IC-FLAG-expressing BeWo cells were treated with or without 50 μM FSK for 24 h, followed by immunoblotting and quantitative RT-PCR analyses of GCM1, hCGβ or HTRA4. […] BeWo cells were treated with or without 1 mM VPA in the presence or absence of 20 μM MG132 for 8 h and then subjected to immunoblotting analysis of GCM1 and Notch1IC. […] The EGFP-positive mock or Notch1IC-FLAG-expressing BeWo cells were transfected with the GCM1 promoter reporter plasmid E1bLUCGCM1-2K for 48 h and then subjected to luciferase assays. […] BeWo cells and ITGA6-positive term CTBs were cultured under normoxic or hypoxic conditions for 72 h and 7 days, respectively. Cells were then harvested for quantitative RT-PCR analysis of GCM1, ΔNp63α, HTRA4, hCGβ, and MKI67. Means and standard deviations obtained from three independent experiments are presented.
To study the effect of EGF and chemical inhibitors on trophoblast differentiation, BeWo cells were cultured in the complete TS medium or in the incomplete TS medium with EGF alone or the indicated chemical inhibitor(s) for 24 h. Cells were then harvested for quantitative RT-PCR or immunoblotting analysis of expression of ΔNp63α, eomesodermin (EOMES), E74-like factor 5 (ELF5) or GCM1 and its target genes.

JEG3 cells = assay: Immunoblotting and quantitative RT-PCR of trophoblast differentiation and stemness genes in JEG3 cells; details: 50 μM FSK or 1 mM DB-cAMP
From the text: FIGS. 2A to 2I show the physical and functional interaction between ΔNp63α and GCM1. […] First-trimester and term placental sections were stained with ΔNp63α and GCM1 antibodies (Abs) for immunofluorescence microscopy. Boxed areas are shown at higher magnification and presented below. Arrowhead, asterisk, and arrow indicate trophoblasts expressing ΔNp63α, GCM1, and both, respectively. Nuclei were stained with DAPI. Term placental sections were stained with CK7 Ab for trophoblasts and normal mouse IgG (M-IgG) and rabbit IgG (R-IgG) for negative controls. […] Mock and ΔNp63α-FLAG-expressing BeWo cells were subjected to immunoblotting (left) and quantitative RT-PCR (right) analyses of GCM1, HTRA4, and hCGβ proteins and transcripts. […] BeWo cells stably expressing scramble or GCM1 shRNA were subjected to immunoblotting (left) and quantitative RT-PCR (right) analyses of GCM1 and ΔNp63α proteins and transcripts. […] JEG3 cells were mock treated (DMSO or control buffer (CTRL)) or treated with 50 μM FSK or 1 mM DB-cAMP for 24 h, followed by immunoblotting and quantitative RT-PCR analyses of the indicated trophoblast differentiation and stemness proteins or transcripts. […]
FIGS. 3A to 3I show reciprocal regulation of GCM1 and ΔNp63α activities in trophoblast differentiation. […] Cell fusion was quantified by fusion index. […]

Notch signaling = assay: Notch reporter (4xCSL-luciferase) assay; details: BeWo cells; 2 mM VPA, 48 hours (FIG. 6D)
Method: FIGS. 6A to 6I show the regulation of trophoblast stemness and differentiation by antagonism between ΔNp63α and GCM1. […] ITGA6-positive term CTBs were cultured in complete TS medium for 5 days and then maintained in the same medium or incomplete medium (vehicle alone without EGF and chemical inhibitors) for an additional 7 days. Cells were subjected to immunofluorescence microscopy of ΔNp63α, GCM1, and hCGβ. […] BeWo cells were incubated in complete or incomplete TS medium supplemented with the indicated growth factor or chemical inhibitor(s) for 24 h. Cells were harvested for quantitative RT-PCR analysis of the indicated stemness or differentiation genes. […] BeWo cells were treated with the indicated concentration of VPA for 24 hours and then harvested for immunoblotting and quantitative RT-PCR analyses of GCM1, ΔNp63α, and hCGβ. […] BeWo cells were transfected with 4XCSL-luciferase in the presence or absence of 2 mM VPA for 48 hours, followed by luciferase assays. […] EGFP-positive mock or Notch1IC-FLAG-expressing BeWo cells were treated with or without 50 μM FSK for 24 h, followed by immunoblotting and quantitative RT-PCR analyses of GCM1, hCGβ or HTRA4. […] Cells were then harvested for quantitative RT-PCR analysis of GCM1, ΔNp63α, HTRA4, hCGβ, and MKI67. […]

ST-TS^Term#2 cells = assay: STB differentiation from TS^Term#2 cells with cyclocreatine; details: TS^Term#2 cells induced into STBs for 72 h with cyclocreatine (FIG. 11H)
From the text: FIGS. 11A to 11I show the regulation of STB differentiation by the GCM1-CKMT1 axis. […] TS^Term#1, TS^Term#2, and TS#1^GCM1-KO cells and their derivative STBs were subjected to RNA-seq analysis. […] TS^Term#1, TS^Term#2, and TS^Term#3 cells and their derivative STBs were subjected to immunoblotting and quantitative RT-PCR analyses of GCM1, hCGβ or CKMT1 proteins and transcripts. […] Scramble control and CKMT1-knockdown TS^Term#2 cells and their derivative STBs were stained with MitoTracker and CKMT1 Ab for immunofluorescence microscopy. Scale bars in FIGS. 11D and 11E, 100 μm. […] Scramble control and CKMT1-knockdown TS^Term#2 cells and their derivative STBs were subjected to immunoblotting and quantitative RT-PCR analyses of GCM1, hCGβ, LHB or CKMT1 proteins or transcripts. In a separated experiment, cells were stained with E-cadherin Ab for cell fusion analysis. Syncytial margins are marked with a stippled line. Cell fusion efficiency was measured by fusion index or the distribution of syncytia containing varying numbers of nuclei. Scale bar, 100 μm. […] Mock (ST)- or cyclocreatine-treated TS^Term#2 cells (ST+Cyclo-Cr) were induced into STBs for 72 h, followed by immunoblotting analysis of hCGβ protein. […]

[1] = single agent in incomplete TS medium, 24 h (FIG. 6B)
[2] = VPA 24 hours, dose-dependent (FIG. 6C)
[3] = EGF alone in incomplete TS medium, 24 h (FIG. 6B)

With `Cc1c[nH]c(-c2cnc(NCCNc3ccc(C#N)cn3)nc2-c2ccc(Cl)cc2Cl)n1` [CHIR99021] as the compound, how does the “expression of ELF5, TEAD4, and AXIN2” value (BeWo cells; [1]) read?
Its value is “upregulation”.

What about the “expression of WNT10B” value (BeWo cells; [1]) of the same compound?
Its value is “downregulation”.

Which “expression of ΔNp63α and trophoblast stemness genes ELF5, EOMES, and TEAD4” value (JEG3 cells; 24 h (FIG. 2I)) does the source give for `CCCC(=O)Nc1ncnc2c1ncn2[C@@H]1O[C@@H]2COP(=O)(O)O[C@H]2[C@H]1OC(=O)CCC` [DB-cAMP, dibutyryl-cAMP] here?
The value was “decreased expression”.

And the “expression of GCM1 and its target genes syncytin-1 (SYN1), hCGβ, HTRA4, PGF, and WNT10B” value (JEG3 cells; 24 h, immunoblotting and qRT-PCR (FIG. 2I))?
Its value is “increased expression”.

What does the source list for `CCCC(CCC)C(=O)O` [VPA, valproic acid]?
Notch reporter plasmid p4×CSL-luciferase activity (Notch signaling): transactivated; GCM1 and hCGβ expression (BeWo cells; [2]): suppress; ΔNp63α expression (BeWo cells; [2]): increase

`NC1=NCCN1CC(=O)O` [cyclocreatine] was tested. Which “hCGβ, SYN1, and LHB expression” value (ST-TS^Term#2 cells) did it give?
The value was “suppressed”.

With “epidermal growth factor (NSDSECPLSHDGYCLHDGVCMYIEALDKYACNCVVGYIGERCQYRDLKWWELR; not fully specified; Epidermal growth factor; UniProt P01133 971-1023, looked up) [EGF, growth factor in complete TS medium]” as the compound, how does the “GCM1 and WNT10B expression” value (BeWo cells; [3]) read?
Its value is “suppressed”.

What about the hCGβ expression (BeWo cells; [3]) of the same compound?
Its hCGβ expression is “enhanced”.
